# pEC50: −log10 of the molar value.
# Experiments:
# [1] = tested on: primary fibroblasts (including lung, dermal), HFL-1, 3T3 and CHO cells expressing LPA1R; test: LPA1 migration assay (Oris cell migration); assay type: cell-based; settings: inhibition of cell migration in response to chemoattractant (LPA, serum)
# From the text: Migration of primary fibroblasts (including lung, dermal), HFL-1, 3T3 and CHO cells expressing LPA1R were monitored using the Oris™ assay (Platypus Technologies, Madison, Wis.). These cells were dye (Cell Tracker Green™) loaded and serum starved for 12-24 hrs. In response to chemoattractants such as LPA and serum, the cells migrated inward in to the exclusion (detection) zone. After fixing, fluorescent cells in the detection zone were counted using a high content reader. The ability of LPA1 antagonists to inhibit cell migration is quantified by plotting cell number vs. compound concentration and curve fitting the resulting dose-response curve to a 4 parameter logistic function.
# Human LPA1 = Human LPA1 (Homo sapiens, UniProt Q92633); test: Beta-Arrestin based assay for human LPA1R antagonists (PathHunter); assay type: cell-based; settings: CHO cells expressing ProLink tagged human LPA1R; antagonist mode, 0.5 micromolar LPA
# Human LPA1, sequence (Q92633 whole entry): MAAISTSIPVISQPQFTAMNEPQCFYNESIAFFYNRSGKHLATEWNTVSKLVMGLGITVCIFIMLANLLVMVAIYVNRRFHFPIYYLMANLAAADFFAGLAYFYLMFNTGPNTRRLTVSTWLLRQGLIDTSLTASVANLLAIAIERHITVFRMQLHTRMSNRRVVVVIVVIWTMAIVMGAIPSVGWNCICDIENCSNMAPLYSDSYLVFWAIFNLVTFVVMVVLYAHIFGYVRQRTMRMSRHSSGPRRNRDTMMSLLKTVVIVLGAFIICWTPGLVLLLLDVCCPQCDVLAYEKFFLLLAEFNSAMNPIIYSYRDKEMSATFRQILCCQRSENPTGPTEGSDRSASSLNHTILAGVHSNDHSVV
# Description: Beta-Arrestin Based Assays for Human LPA1R Antagonists and Agonists
# A CHO cell line stably expressing the ProLink™ tagged human LPA1R was obtained from DiscoverX Inc, Fremont, Calif. In this system, β-Arrestin was fused to an N-terminal deletion mutant of β-galactosidase (termed the enzyme acceptor or EA), the human LPA1R was fused to a smaller (42 amino acids) weakly complementing fragment termed ProLink™. […] Cell handling and assays were performed according to protocols specified in the PathHunter® assays kits (DiscoverX, Fremont, Calif.). Assays were performed in quadruplicate in white 384 well plates. End point luminescence data were plotted and fit to a 4 parameter logistic function to obtain IC50 values. For antagonist assays, an […] concentration of agonist (LPA) equal to 0.5 micromolar was used.
SMILES,pEC50 (Human LPA1),pEC50 [1]
"Cc1noc(-c2ccc(-c3ccc4c(c3)CCCC4C(=O)O)cc2)c1NC(=O)O[C@H](C)c1ccccc1 (single isomer, unassigned) [IT038]",,< 6.30
"Cc1noc(-c2ccc(-c3ccc4c(c3)CCCC4C(=O)O)cc2)c1NC(=O)O[C@H](C)c1ccccc1 (single isomer, unassigned) [IT039]",,< 6.30
"Cc1noc(-c2ccc(-c3ccc(C4(C(=O)O)CC4)cc3)cc2)c1NC(=O)O[C@@H]1CCCc2ccccc21 (single isomer, unassigned) [IT057]",< 6.30,< 6.30
"Cc1noc(-c2ccc(-c3ccc(C4(C(=O)O)CC4)cc3)cc2)c1NC(=O)O[C@H]1CCCc2ccccc21 (single isomer, unassigned) [IT058]",< 6.30,< 6.30
"Cc1noc(-c2ccc(-c3ccc(C4(C(=O)O)CC4)cc3)cc2)c1NC(=O)OC(C)c1cccc2ocnc12 (single isomer, unassigned) [IT076]",< 6.30,
"Cc1noc(-c2ccc(-c3ccc(C4(C(=O)O)CC4)cc3)cc2)c1NC(=O)OC(C)c1cccc2ocnc12 (single isomer, unassigned) [IT077]",6.30 to 7.30,
Cc1noc(C#Cc2ccc(CC3(C(=O)O)CC3)cc2)c1NC(=O)O[C@H](C)c1ccccc1 [IT001],6.30 to 7.30,6.30 to 7.30
Cc1noc(C#Cc2ccc(C3(CC(=O)O)CC3)cc2)c1NC(=O)O[C@H](C)c1ccccc1 [IT002],6.30 to 7.30,6.30 to 7.30
Cc1noc(C#Cc2ccc(NC(=O)C3(C(=O)O)CC3)cc2)c1NC(=O)O[C@H](C)c1ccccc1 [IT005],< 6.30,< 6.30
Cc1noc(C#Cc2ccc(CC3(C(=O)O)CC3)cc2)c1NC(=O)O[C@H](C)c1ccccc1 [IT006],6.30 to 7.30,
Cc1noc(-c2ccc(-c3ccc4c(c3)NC(=O)CC4C(=O)O)cc2)c1NC(=O)O[C@H](C)c1ccccc1 (stereo partly shown) [IT011],6.30 to 7.30,< 6.30
Cc1noc(C#Cc2ccc(/C=C/C(=O)O)cc2)c1NC(=O)O[C@H](C)c1ccccc1 [IT013],< 6.30,< 6.30
C[C@@H](OC(=O)Nc1c(-c2ccc(-c3ccc(C4(C(=O)O)CC4)cc3)cc2)nc2n1CCNC2)c1ccccc1 [IT019],< 6.30,< 6.30
CCN1CCn2c(nc(-c3ccc(-c4ccc(C5(C(=O)O)CC5)cc4)cc3)c2NC(=O)O[C@H](C)c2ccccc2)C1 [IT024],< 6.30,< 6.30
C[C@@H](OC(=O)Nc1c(-c2ccc(C#CC3(C(=O)O)CC3)cc2)nnn1C)c1ccccc1 [IT036],< 6.30,< 6.30
C[C@@H](OC(=O)Nc1c(-c2cc(F)c(-c3ccc(C4(C(=O)O)CCOCC4)cc3)cc2F)cnn1C)c1ccccc1 [IT044],> 7.30,6.30 to 7.30
Cc1nsc(-c2cc(F)c(-c3ccc(C4(C(=O)O)CCOCC4)cc3)cc2F)c1NC(=O)OCc1ccccc1 [IT045],< 6.30,< 6.30
C[C@@H](OC(=O)Nc1c(-c2cc(F)c(-c3ccc(C4(C(=O)O)CC4)cc3)cc2F)nn2ccccc12)c1ccccc1 [IT049],> 7.30,6.30 to 7.30
C[C@@H](OC(=O)Nc1c(-c2ccc(-c3ccc(C4(C(=O)O)CC4)cc3)cc2)nn2ccccc12)c1ccccc1 [IT052],,< 6.30
C[C@@H](OC(=O)Nc1c(-c2cc(F)c(-c3ccc(C4(C(=O)O)CCOCC4)cc3)cc2F)nnn1C)c1ccccc1 [IT055],6.30 to 7.30,6.30 to 7.30
Cc1noc(C#Cc2ccc3cc(CC4(C(=O)O)CC4)ccc3c2)c1NC(=O)O[C@H](C)c1ccccc1 [IT065],6.30 to 7.30,< 6.30
C[C@@H](OC(=O)Nc1c(C(F)(F)F)nnn1-c1ccc(-c2ccc(C3(C(=O)O)CC3)cc2)cc1)c1ccccc1 [IT072],> 7.30,< 6.30
C[C@@H](OC(=O)Nc1c(C#Cc2cc3sc(C4(C(=O)O)CC4)cc3s2)oc2ccccc12)c1ccccc1 [IT074],6.30 to 7.30,< 6.30
C[C@@H](OC(=O)Nc1c(-c2cc(F)c(-c3ccc(C4(C(=O)O)CC4)cc3)cc2F)oc2ccccc12)c1ccccc1 [IT075],> 7.30,6.30 to 7.30
C[C@@H](OC(=O)Nc1ncsc1C#Cc1cc2sc(C3(C(=O)O)CC3)cc2s1)c1ccccc1 [IT101],< 6.30,
COCC(COC(=O)C1(c2cc3sc(C#Cc4cnn(C)c4NC(=O)O[C@H](C)c4ccccc4)cc3s2)CC1)OC (stereo partly shown) [IT 100],> 7.30,
Cc1noc(C#Cc2nc3sc(C4(C(=O)O)CC4)cc3s2)c1NC(=O)O[C@H](C)c1ccccc1 [IT 102],> 7.30,
C[C@@H](OC(=O)Nc1c(C#Cc2sc3cc(C4(C(=O)O)CC4)sc3c2C(F)(F)F)cnn1C)c1ccccc1 [IT 103],> 7.30,

# More lines, main results first:
pEC50 (Human LPA1),SMILES,pEC50 [1]
6.30 to 7.30,"Cc1nsc(C2CCC(c3ccc(C4(C(=O)O)CC4)cc3)CC2)c1NC(=O)O[C@H](C)c1ccccc1 (single isomer, unassigned) [IT059]",< 6.30
< 6.30,"Cc1nsc(C2CCC(c3ccc(C4(C(=O)O)CC4)cc3)CC2)c1NC(=O)O[C@H](C)c1ccccc1 (single isomer, unassigned) [IT060]",< 6.30
< 6.30,"Cc1nsc(C#Cc2ccc3c(c2)CCC(C(=O)O)C3)c1NC(=O)O[C@H](C)c1ccccc1 (single isomer, unassigned) [IT062]",< 6.30
< 6.30,"Cc1nsc(C#Cc2ccc3c(c2)CCC(C(=O)O)C3)c1NC(=O)O[C@H](C)c1ccccc1 (single isomer, unassigned) [IT063]",< 6.30
> 7.30,"Cc1nsc(-c2ccc(-c3ccc(C4(C(=O)O)CC4)cc3)cc2)c1NC(=O)OC(c1ccccc1)C(F)(F)F (single isomer, unassigned) [IT078]",6.30 to 7.30
< 6.30,"Cc1nsc(-c2ccc(-c3ccc(C4(C(=O)O)CC4)cc3)cc2)c1NC(=O)OC(c1ccccc1)C(F)(F)F (single isomer, unassigned) [IT079]",< 6.30
< 6.30,Cc1nsc(-c2ccc([C@H]3CC[C@@H](C(=O)O)CC3)cc2)c1NC(=O)O[C@H](C)c1ccccc1 [IT007],< 6.30
< 6.30,Cc1nsc(-c2ccc([C@H]3CC[C@H](C(=O)O)CC3)cc2)c1NC(=O)O[C@H](C)c1ccccc1 [IT008],< 6.30
< 6.30,Cc1noc(-c2ccc(-c3ccc4c(c3)CCOC4C(=O)O)cc2)c1NC(=O)O[C@H](C)c1ccccc1 (stereo partly shown) [IT012],< 6.30
< 6.30,Cc1nsc(-c2ccc(-c3cc4sc(C(=O)O)cc4s3)cc2)c1NC(=O)O[C@H](C)c1ccccc1 [IT025],< 6.30
6.30 to 7.30,Cc1noc(-c2ccc(-c3ccc4c(c3)OCCC4C(=O)O)cc2)c1NC(=O)O[C@H](C)c1ccccc1 (stereo partly shown) [IT037],
> 7.30,Cc1nsc(-c2cc(F)c(-c3ccc(C4(C(=O)O)CCOCC4)cc3)cc2F)c1NC(=O)O[C@H](C)c1ccccc1 [IT042],6.30 to 7.30
< 6.30,Cc1nsc(-c2ccc3cc(C4CCC(C(=O)O)CC4)ccc3c2)c1NC(=O)O[C@H](C)c1ccccc1 (stereo partly shown) [IT053],< 6.30
< 6.30,Cc1nsc(-c2ccc3cc(C4CCC(C(=O)O)CC4)ccc3c2)c1NC(=O)O[C@H](C)c1ccccc1 (stereo partly shown) [IT054],< 6.30
< 6.30,Cc1nsc(-c2ccc(N3CCC(CC(=O)O)CC3)cc2)c1NC(=O)O[C@H](C)c1ccccc1 [IT068],< 6.30
< 6.30,Cc1nsc(-c2cc3cc4sc(C(=O)O)cc4cc3s2)c1NC(=O)O[C@H](C)c1ccccc1 [IT080],
